Data from patent publication US9521846B2, “Template-fixed peptidomimetics with antimicrobial activity” (priority 2006, dated 2016).
In brackets after ≈: the same amount, converted by molar mass. Non-standard residues stand in square brackets, D forms with d. Residues, ends and D or L forms follow the SMILES beside them. Chg = N[C@H](C(=O)O)C1CCCCC1; dDab = NCC[C@@H](N)C(=O)O; Orn = NCCC[C@H](N)C(=O)O; Dab = NCC[C@H](N)C(=O)O; Nva = CCC[C@H](N)C(=O)O; Aib = CC(C)(N)C(=O)O

Experiments:
[1] = test system: HELA cells (Acc57); assay: Cytotoxicity assay, MTT reduction (LC 50, GI 50); type: cell-based
Description: The cytotoxicity of the peptides to HELA cells (Acc57) and COS-7 cells (CRL-1651) was determined using the MIT reduction assay [see ref. 2 and 3, below]. Briefly the method was as follows: HELA cells and COS-7 cells were seeded at 7.0×10^3 and, respectively, 4.5×10^3 cells per well and grown in 96-well […] plates for 24 hours at 37° C. at 5% CO2. At this point, time zero (Tz) was determined by MTT reduction (see below). The supernatant of the remaining wells was discarded, and fresh medium and the peptides in serial dilutions of 12.5, 25 and 50 μM were dispensed into the wells. Each peptide concentration was assayed in triplicate. Incubation of the cells was continued for 48 hours at 37° C. at 5% CO2. Wells were then washed once with phosphate buffered saline (PBS) and subsequently 100 μl MIT reagent (0.5 mg/ml in medium RPMI1640 and, respectively, DMEM) were added to the wells. This was incubated at 37° C. for 2 hours and subsequently the medium was aspirated and 100 μl isopropanol were added to each well. The absorbance at 595 nm of the solubilized product was measured (OD595peptide). For each concentration averages were calculated from triplicates. The percentage of growth was calculated as follows: (OD595peptide-OD595Tz-OD595Empty well)/(OD595Tz-OD595Empty well)×100% and was plotted for each peptide concentration.
The LC 50 values (Lethal Concentration, defined as the concentration that kills 50% of the cells) were determined for each peptide by using the trend line function of EXCEL (Microsoft Office 2000) for the concentrations (50, 25, 12.5 and 0 μM), the corresponding growth percentages and the value −50, (=TREND(C50:C0,%50:%0,−50)). The GI 50 (Growth Inhibition) concentrations were calculated for each peptide by using a trend line function for the concentrations (50, 25, 12.5 and 0 […]), the corresponding percentages and the value 50, (=TREND (C50:C0,%50:%0,50).

[2] = test system: P. aeruginosa ATCC 27853; type: cell-based, Pseudomonas aeruginosa; conditions: ATCC 27853
Description: (§1) The selective antimicrobial activities of the peptides were determined in 96-well plates (Nunclon polystyrene) by the standard NCCLS broth microdilution method (see ref 1, below) with slight modifications. Innocula of the microorganisms were diluted into Mueller-Hinton (MH) broth+0.02% BSA and compared with a 0.5 Mcfarland standard to give appr. 10^6 colony forming units (CFU)/ml. Aliquots (50 μl) of inoculate were added to 50 μl of MH broth+0.02% BSA containing the peptide in serial two-fold dilutions. The following microorganisms were used to determine antibiotic selectivity of the peptides: Escherichia coli (ATCC 25922), Pseudomonas aeruginosa (P. aeruginosa ATCC 27853, P8191900, P1021903, P1021913, IMP 1 Livermore 3140).

[3] = test system: Pseudomonas aeruginosa P8191900; type: cell-based; conditions: P8191900
Description: as §1

[4] = test system: Pseudomonas aeruginosa P1021903; type: cell-based; conditions: P1021903
Description: as §1

[5] = test system: Pseudomonas aeruginosa P1021913; type: cell-based; conditions: P1021913
Description: as §1

[6] = test system: Pseudomonas aeruginosa IMP 1 Livermore 3140; type: cell-based; conditions: IMP 1 Livermore 3140
Description: as §1

[7] = test system: P. aeruginosa
[8] = test system: human red blood cells (hRBC); assay: Hemolysis; type: cell-based; conditions: 100
Description: Hemolysis of red blood cells is often employed for assessment of toxicity of related compounds such as protegrin or tachyplesin. Values are given as %-lysis of red blood cells observed at a concentration of 100 μg/ml. Typical values determined for cationic peptides such as protegrin and tachyplesin range between 30-40% with average MIC-values of 1-5 μg/ml over a wide range of pathogens.
The peptides were tested for their hemolytic activity against human red blood cells (hRBC). Fresh hRBC were washed three times with phosphate buffered saline (PBS) by centrifugation for 10 min at 2000×g. Peptides at a concentration of 100 μM were incubated with 20% v/v hRBC for 1 hour at 37° C. The final erythrocyte concentration was approximately 0.9×10^9 cells per ml. A value of 0% and, respectively, 100% cell lysis was determined by incubation of the hRBC in the presence of PBS alone and, respectively, 0.1% Triton X-100 in H2O. The samples were centrifuged, the supernatant was 20-fold diluted in PBS buffer and the optical density (OD) of the sample at […] was measured. The 100% lysis value (OD540H20) gave an OD540 of approximately 1.3-1.8. Percent hemolysis was calculated as follows: (OD540peptide/OD540H20)×100%.

Row | SMILES | Cytotoxicity GI50 Hela cells [1] [µM] | MIC P. aeruginosa ATCC 27853 [2] [mg/L] | MIC P. aeruginosa P8191900 [3] [mg/L] | MIC P. aeruginosa P1021903 [4] [mg/L] | MIC P. aeruginosa P1021913 [5] [mg/L] | MIC P. aeruginosa IMP1 Livermore 3140 [6] [mg/L] | Average MIC [7] [mg/L] | Hemolysis at 100 μg/ml [8] [%]
1 | CC[C@H](C)[C@@H]1NC(=O)[C@H](Cc2c[nH]c3ccccc23)NC(=O)[C@H]([C@@H](C)O)NC(=O)[C@@H]2CCCN2C(=O)[C@H]2CCCN2C(=O)[C@H](CCN)NC(=O)[C@H](C2CCCCC2)NC(=O)[C@H](CCN)NC(=O)[C@H](CCN)NC(=O)[C@H](Cc2c[nH]c3ccccc23)NC(=O)[C@H](CCN)NC(=O)[C@H](CCN)NC(=O)[C@H](CCCCN)NC(=O)[C@H](CCN)NC1=O [Example 11] (cyclo(TWI[Dab]K[Dab][Dab]W[Dab][Dab][Chg][Dab][dP]P)) | 50 | 0.30 (≈ 0.182 µM) | 1.00 (≈ 0.606 µM) | 2.00 (≈ 1.21 µM) | 0.75 (≈ 0.455 µM) | >2 | >1 | 0.5
2 | CC[C@H](C)[C@@H]1NC(=O)[C@H](Cc2c[nH]c3ccccc23)NC(=O)[C@H]([C@@H](C)O)NC(=O)[C@@H]2CCCN2C(=O)[C@H]2CCCN2C(=O)[C@H](CCN)NC(=O)[C@H](C)NC(=O)[C@H](CCN)NC(=O)[C@H](CCN)NC(=O)[C@H](Cc2c[nH]c3ccccc23)NC(=O)[C@H](CCC(N)=O)NC(=O)[C@H](CCN)NC(=O)[C@H](CCCCN)NC(=O)[C@H](CCN)NC1=O [Example 39] (cyclo(TWI[Dab]K[Dab]QW[Dab][Dab]A[Dab][dP]P)) | 50 | 0.13 (≈ 0.0808 µM) | 0.21 (≈ 0.131 µM) | 0.31 (≈ 0.193 µM) | 0.31 (≈ 0.193 µM) | 0.75 (≈ 0.466 µM) | 0.34 | 0.4
3 | CC[C@H](C)[C@@H]1NC(=O)[C@H](Cc2c[nH]c3ccccc23)NC(=O)[C@H]([C@@H](C)O)NC(=O)[C@@H]2CCCN2C(=O)[C@H]2CCCN2C(=O)[C@H](CCN)NC(=O)C(C)(C)NC(=O)[C@H](CCN)NC(=O)[C@H](CCN)NC(=O)[C@H](Cc2c[nH]c3ccccc23)NC(=O)[C@H](CCN)NC(=O)[C@H](CCN)NC(=O)[C@H](CCCCN)NC(=O)[C@H](CCN)NC1=O [Example 5] (cyclo(TWI[Dab]K[Dab][Dab]W[Dab][Dab][Aib][Dab][dP]P)) | 50 | 0.08 (≈ 0.0502 µM) | 0.30 (≈ 0.188 µM) | 0.21 (≈ 0.132 µM) | 0.21 (≈ 0.132 µM) | 0.75 (≈ 0.47 µM) | 0.31 | 0.6
4 | CC[C@H](C)[C@@H]1NC(=O)[C@H](Cc2c[nH]c3ccccc23)NC(=O)[C@H]([C@@H](C)O)NC(=O)[C@@H]2CCCN2C(=O)[C@H]2CCCN2C(=O)[C@H](CCN)NC(=O)[C@H](C)NC(=O)[C@H](CCN)NC(=O)[C@H](CCCCN)NC(=O)[C@H](Cc2c[nH]c3ccccc23)NC(=O)[C@H](CCN)NC(=O)[C@H](CCN)NC(=O)[C@H](CCCCN)NC(=O)[C@H](CCN)NC1=O [Example 27] (cyclo(TWI[Dab]K[Dab][Dab]WK[Dab]A[Dab][dP]P)) | 50 | 0.09 (≈ 0.0559 µM) | 0.30 (≈ 0.186 µM) | 0.30 (≈ 0.186 µM) | 0.21 (≈ 0.131 µM) | 0.50 (≈ 0.311 µM) | 0.28 | 0.6
5 | CCC[C@@H]1NC(=O)[C@H](CCN)NC(=O)[C@H](CCN)NC(=O)[C@H](Cc2c[nH]c3ccccc23)NC(=O)[C@H](CCN)NC(=O)[C@H](CCN)NC(=O)[C@H](CCCCN)NC(=O)[C@H](CCN)NC(=O)[C@H]([C@@H](C)CC)NC(=O)[C@H](Cc2c[nH]c3ccccc23)NC(=O)[C@H]([C@@H](C)O)NC(=O)[C@@H]2CCCN2C(=O)[C@H]2CCCN2C(=O)[C@H](CCN)NC1=O [Example 10] (cyclo(TWI[Dab]K[Dab][Dab]W[Dab][Dab][Nva][Dab][dP]P)) | 50 | 0.05 (≈ 0.0311 µM) | 0.18 (≈ 0.112 µM) | 0.13 (≈ 0.0808 µM) | 0.37 (≈ 0.23 µM) | 0.43 (≈ 0.267 µM) | 0.23 | 0
6 | CC[C@H](C)[C@@H]1NC(=O)[C@H](Cc2ccc(O)cc2)NC(=O)[C@H]([C@@H](C)O)NC(=O)[C@@H]2CCCN2C(=O)[C@H]2CCCN2C(=O)[C@H](CCN)NC(=O)[C@H](C)NC(=O)[C@H](CCN)NC(=O)[C@H](CCN)NC(=O)[C@H](Cc2c[nH]c3ccccc23)NC(=O)[C@H](CCN)NC(=O)[C@H](CCN)NC(=O)[C@H](CCCCN)NC(=O)[C@H](CCN)NC1=O [Example 19] (cyclo(TYI[Dab]K[Dab][Dab]W[Dab][Dab]A[Dab][dP]P)) | 50 | 0.03 (≈ 0.0193 µM) | 0.05 (≈ 0.0321 µM) | 0.03 (≈ 0.0193 µM) | 0.10 (≈ 0.0642 µM) | 0.10 (≈ 0.0642 µM) | 0.06 | 0.2
7 | CC[C@H](C)[C@@H]1NC(=O)[C@H](Cc2c[nH]c3ccccc23)NC(=O)[C@H]([C@@H](C)O)NC(=O)[C@@H]2CCCN2C(=O)[C@H]2CCCN2C(=O)[C@H](CO)NC(=O)[C@H](C)NC(=O)[C@H](CCN)NC(=O)[C@H](CCN)NC(=O)[C@H](Cc2c[nH]c3ccccc23)NC(=O)[C@H](CCN)NC(=O)[C@@H](CCN)NC(=O)[C@H](CCCN)NC(=O)[C@H](CCN)NC1=O [Example 49] (cyclo(TWI[Dab][Orn][dDab][Dab]W[Dab][Dab]AS[dP]P)) | 50 | 0.03 (≈ 0.0193 µM) | 0.06 (≈ 0.0386 µM) | 0.03 (≈ 0.0193 µM) | 0.25 (≈ 0.161 µM) | 0.50 (≈ 0.322 µM) | 0.17 | 0.1
